Experimental data as given in US9168243B2, “Pharmaceutical compositions comprising 8-substituted dibenzylbutyrolactone lignans” (priority 2010, dated 2015).
“Also recorded” adds a separate entry of the source.

Experiments:
Type in all cases: cell-based
[1] = test system: LNCaP prostate cancer cells; experiment: Flow cytometric screen for sensitization to TRAIL-induced apoptosis (nuclear fragmentation by propidium iodide, mitochondrial depolarization by TMRM)
Method: (§1) Flow cytometric analysis of apoptosis with HTS platform was performed on cells that were plated on a 96-well plate as triplicate samples. After 24 hours in androgen-deprived conditions, the cells were pretreated with 40 μM lignans or lignan derivatives for 1 hour prior to addition of 10 ng/ml izTRAIL. Twenty hours later the plate was centrifuged with a culture plate rotor (1000 rpm, 3 minutes). For analysis of nuclear fragmentation, propidium iodide (PI) buffer (40 mM Na-citrate, 0.3% Triton X-100, 50 μg/ml PI; Sigma) was added to the wells. After 10 minutes incubation at room temperature, the plate was analyzed with LSRII flow cytometer equipped with HTS platform (PE-A channel). The fraction of sub-G0/G1 events (nuclear fragmentation) was gated as a measure of apoptotic cell death. For detection of mitochondrial depolarization, the cells were detached by trypsinization of the cells and incubated in 20 nM tetramethylrhodamine (TMRM; Invitrogen) in warm culture medium for 10 minutes before analysis. The plate was analyzed with LSRII flow cytometer equipped with HTS platform (FSC, PE-A channel). The cells with decreased TMRM incorporation were considered to have undergone mitochondrial membrane depolarization. Activated caspase-3 in cells was labeled with phycerythrin (PE)-conjugated antibody according to manufacturer's protocol (BD Pharmingen) and analyzed by FacsCalibur flow cytometer (FL-2, FSC).
LNCaP cells were cultured in the absence of 1 nM androgen and incubated with lignan compounds (40 μM) for 1 hour before izTRAIL treatment (10 ng/ml) or control for 20 hours. The samples were screened for nuclear fragmentation by propidium iodide labeling (FIG. 1A) or mitochondrial depolarization by TMRM labeling (FIG. 1B). The plates were analyzed with LSRII flow cytometer equipped with HTS platform (FSC, PE-A channels). The fraction of sub-G0/G1 events (nuclear fragmentation; PE-A channel) was gated as a measure of apoptotic cell death (FIG. 1A) and the cells with decreased TMRM incorporation (PE-A channel) were considered to have undergone mitochondrial membrane depolarization (FIG. 1B). Representative histograms and dot blots for control, TRAIL, nortrachelogenin (NTG) and NTG+TRAIL treatments are viewed.
Importantly, substitution with methyl group at position 8 further increases activity of dibenzylbutyrolactone lignans in sensitization of LNCaP prostate cancer cells to TRAIL-mediated apoptosis (FIG. 8). LNCaP cells were cultured in the absence of 1 nM androgen and incubated with indicated lignan compounds (40 μM) for 1 hour before izTRAIL treatment (10 ng/ml) or control for 20 hours. The cells were disrupted and the nuclei labeled for DNA content with propidium iodide. The samples were analyzed by flow cytometry and the fraction of sub-G0/G1 events (nuclear fragmentation) was detected as a measure of apoptotic cell death (mean±SEM; n=4). (FIG. 8A). Alternatively, LNCaP cells (+/−1 nM androgen) were incubated with 0-100 μM 8-Me-MAT for 1 hour after which total cell lysates were prepared and the samples were analyzed by Western blotting for Akt and phospho-Akt(ser473) expression.

[2] = test system: LNCaP cells; experiment: Caspase-3 activation by flow cytometry, TRAIL with or without NTG; settings: for percentage of cells with activated caspase-3 (maximum): combination of 40 μM NTG and TRAIL, 20 h
Method: as §1
As NTG was identified as the most efficient TRAIL-sensitizing lignan, we analyzed the ability of NTG to affect the efficacy of different TRAIL concentrations in triggering of caspase-3 activation (FIG. 2A). The TRAIL resistant LNCaP cells were cultured in androgen-supplied and androgen-deprived conditions to simulate the effects of androgen-deprivation therapy, and treated for 20 h with TRAIL alone or with the combination of 40 μM NTG and TRAIL. The percentage of cells with activated caspase-3 increased from maximum of 15% to 60% for androgen-deprived, and from 13% to 30% for androgen-supplied cells (Mean±SEM; n≧3) (FIG. 2A).

[3] = test system: non-malignant prostate epithelial RWPE-1 cells; experiment: Caspase-3 activation by flow cytometry in a non-malignant prostate cell line; settings: 40 μM NTG 1 h before izTRAIL in different concentrations, 20 h
Method: The LNCaP prostate cancer cells (clone FGC; EACC) were cultured in RPMI-1640 medium (Sigma-Aldrich) supplemented with 10% fetal calf serum (BioClear), 2 mM L-glutamin, 100 U/ml penicillin, 100 μg/ml streptomycin and 1 mM sodium pyruvate (Sigma-Aldrich). One day prior to treatment medium was changed to phenol red free RPMI-1640 (Gibco) with or without 1 nM synthetic androgen (Mibolerone). This medium was supplemented with 10% charcoal/dextran treated fetal bovine serum (Hyclone), L-glutamine, penicillin and streptomycin. SV40 transformed prostate epithelial RWPE-1 cell line was kindly provided by Professor Olli Kallioniemi. […]
Flow cytometric analysis of apoptosis with HTS platform was performed on cells that were plated on a 96-well plate as triplicate samples. […] After 10 minutes incubation at room temperature, the plate was analyzed with LSRII flow cytometer equipped with HTS platform (PE-A channel). […] The plate was analyzed with LSRII flow cytometer equipped with HTS platform (FSC, PE-A channel). […] Activated caspase-3 in cells was labeled with phycerythrin (PE)-conjugated antibody according to manufacturer's protocol (BD Pharmingen) and analyzed by FacsCalibur flow cytometer (FL-2, FSC). […]

COc1cc(CC2COC(=O)C2(O)Cc2ccc(O)c(OC)c2)ccc1O (stereo not shown) [NTG, Nortrachelogenin] was tested, and the “capacity to sensitize LNCaP prostate cancer cells to TRAIL-induced apoptosis” value ([1]; androgen-deprived, 40 μM lignan 1 hour before 10 ng/ml izTRAIL, 20 hours) was “highest capacity of the tested lignan compounds; also recorded: most efficient of the 27 tested lignan compounds; also recorded: clearly enhances the activity”, the “increase of the apoptotic response compared to TRAIL alone (factor)” value ([1]; lignan in combination with TRAIL) was 3.2 and the “sensitizing effect when medium change directly precedes TRAIL receptor activation” value ([2]; 1 hour pretreatment with 40 μM NTG, culture medium replaced before TRAIL, androgen-deprived and androgen-supplied) was “completely abolished”. The “effect of increasing the NTG dose on sensitization to TRAIL” value ([2]; NTG 40 μM to 100 μM, 10 ng/ml TRAIL) was “did not induce further sensitization”, the “percentage of cells with activated caspase-3 (maximum)” value ([2]; androgen-deprived LNCaP) was 60% and the “percentage of cells with activated caspase-3 (maximum)” value ([2]; androgen-supplied LNCaP) was 30%. For the same molecule, the “sensitization of non-malignant cells to TRAIL (caspase-3 activation)” value [3] was “did not display any sensitization to TRAIL”.
